For one series, the target named is T1, CYP2D6 (Homo sapiens, UniProt P10635).
T1 construct: tissue BD-Gentest 452117; host or cells: human liver microsomes
Briefly: CYP inhibition assay in human liver microsome, CYP2D6. The series is classed as in vitro ADME. The conditions noted are these: human, human liver microsomes, probe dextromethorphan 5 μM, substrate dextromethorphan 5 μM, second value of 2C9/2D6/3A4. The method, then: (§1) This is a high throughput screening assay used for assessment of reversible inhibition of CYP2C9, CYP2D6, and CYP3A4 activity of test compounds in human liver microsome (HLM) in early discovery stage.
(§2) 10 mM DMSO stock solutions of test compounds were diluted in DMSO to generate 2 mM intermediate stock solution. 250 nL, of intermediate stock solution were transferred in duplicate into 3 separate 384 well microtitre plates (assay-ready plates). A mixture of HLM and each substrate was made up. 45 μL of HLM substrate mix was then transferred to each well of an assay ready plate and mixed. The negative (solvent) and positive controls (standard inhibitor for each CYP) were included in each assay ready plate. The assay ready plate was warmed to 37° C. in an incubator over 10 minutes. 5 μL pre-warmed NADPH regenerating system was added to each incubation well to start the reaction. Final incubation volume was 50 μL. The assay plate then was placed back in the 37° C. incubator. After incubation (10 minutes for CYP2D6) for 5 minutes, incubates were quenched by addition of 50 μL 100% acetonitrile containing internal standards (400 ng/mL 13C6-4′-OH-Diclofenac, 20 ng/mL D3-Dextrorphan and 20 ng/mL D4-1′OH-Midazolam). The supernatants were collected for RapidFire/MS/MS analysis.
(§3) RapidFire online solid phase extraction/sample injection system (Agilent) coupled with API4000 triple quadrupole mass spectrometer (AB Sciex) were used for sample analysis. The mobile phase composed of acetonitrile and water supplemented with 0.1% formic acid. A C4 solid phase extraction cartridge is used for sample separation. MS detection is achieved in positive ion MRM mode.
(§4) Peak areas for substrate, metabolite and internal standard are determined using the RapidFire integrator software (version 3.6.12009.12296). Peak area ratios (PAR) of metabolite and internal standard (stable-labelled metabolite) are then calculated. The measurement window for each experiment is then defined:
(§5) PAR (0% activity)=average PAR for all incubations containing concentrated inhibitor; Par (100% activity)=average PAR for all incubations containing no inhibitor (DMSO controls); % Activity (test inhibitor)=[PAR (test inhibitor)−PAR (0% activity)]/[PAR (100% activity)−PAR (0% activity)]; % Inhibition (test inhibitor)=100-% Activity (test inhibitor).

Another series deals with T2, human TLR8 (Homo sapiens, UniProt Q9NR97).
T2 construct: host or cells: HEK293 (HEK-Blue hTLR8)
T2 sequence (Q9NR97 27-1041): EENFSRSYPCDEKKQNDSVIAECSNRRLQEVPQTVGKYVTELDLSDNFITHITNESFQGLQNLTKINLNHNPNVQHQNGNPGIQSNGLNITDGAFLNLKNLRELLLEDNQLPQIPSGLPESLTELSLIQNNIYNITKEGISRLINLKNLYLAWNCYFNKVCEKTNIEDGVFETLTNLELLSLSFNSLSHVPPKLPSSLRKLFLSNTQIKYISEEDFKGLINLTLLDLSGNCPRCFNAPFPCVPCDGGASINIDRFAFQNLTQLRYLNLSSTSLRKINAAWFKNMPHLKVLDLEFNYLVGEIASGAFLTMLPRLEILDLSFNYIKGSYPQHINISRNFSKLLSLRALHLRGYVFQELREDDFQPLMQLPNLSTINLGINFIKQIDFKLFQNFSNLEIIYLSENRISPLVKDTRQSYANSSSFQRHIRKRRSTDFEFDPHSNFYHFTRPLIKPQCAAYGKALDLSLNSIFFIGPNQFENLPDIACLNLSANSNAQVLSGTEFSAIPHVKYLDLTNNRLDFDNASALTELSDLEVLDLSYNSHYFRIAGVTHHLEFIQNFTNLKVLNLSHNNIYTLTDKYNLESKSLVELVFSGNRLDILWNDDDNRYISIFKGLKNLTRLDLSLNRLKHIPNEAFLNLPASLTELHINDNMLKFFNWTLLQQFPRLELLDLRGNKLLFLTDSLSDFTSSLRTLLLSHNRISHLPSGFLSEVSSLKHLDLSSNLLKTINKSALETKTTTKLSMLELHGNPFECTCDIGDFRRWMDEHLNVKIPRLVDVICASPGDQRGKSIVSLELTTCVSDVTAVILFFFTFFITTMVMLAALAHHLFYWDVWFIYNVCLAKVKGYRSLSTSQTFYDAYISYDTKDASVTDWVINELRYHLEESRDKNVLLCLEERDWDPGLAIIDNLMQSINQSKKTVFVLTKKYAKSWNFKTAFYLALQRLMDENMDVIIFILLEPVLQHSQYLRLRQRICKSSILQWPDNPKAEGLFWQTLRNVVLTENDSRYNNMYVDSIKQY
Briefly: HEK293-Blue-hTLR-8 cells assay (SEAP reporter, R848 stimulation). Type of series: cell-based. The following applies: HEK293-Blue-hTLR8 cells, R848, 20 hrs; read-out: HEK/hTLR8 IC50. A digest of the protocol: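 HEK293-Blue-hTLR8 cells (NF-κB/AP-1-driven SEAP) incubated 20 h at 37° C with serially diluted compound (1% DMSO) plus R848 stimulation. Supernatant SEAP measured with QUANTI-Blue, 2 h at 37° C, absorbance 620–655 nm.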

Another series deals with T3, CYP2C9 (Homo sapiens, UniProt P11712).
T3 construct: tissue BD-Gentest 452117; host or cells: human liver microsomes
T3 sequence (P11712 whole entry): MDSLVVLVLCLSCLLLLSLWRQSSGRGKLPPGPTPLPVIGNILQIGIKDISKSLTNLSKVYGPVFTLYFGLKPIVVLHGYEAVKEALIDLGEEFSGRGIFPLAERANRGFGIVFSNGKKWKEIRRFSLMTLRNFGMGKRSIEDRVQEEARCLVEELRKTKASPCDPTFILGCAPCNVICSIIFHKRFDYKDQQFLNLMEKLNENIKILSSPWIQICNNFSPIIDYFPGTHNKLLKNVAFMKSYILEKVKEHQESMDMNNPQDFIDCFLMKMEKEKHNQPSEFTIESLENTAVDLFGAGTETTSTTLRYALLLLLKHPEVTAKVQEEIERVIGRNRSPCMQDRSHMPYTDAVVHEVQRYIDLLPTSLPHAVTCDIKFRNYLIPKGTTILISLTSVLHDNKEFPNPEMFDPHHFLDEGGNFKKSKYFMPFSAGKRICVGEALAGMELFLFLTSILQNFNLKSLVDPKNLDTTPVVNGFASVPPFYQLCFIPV
Briefly: CYP inhibition assay in human liver microsome, CYP2C9. Type of series: in vitro ADME. The conditions noted are these: human, human liver microsomes, probe diclofenac 5 μM, substrate diclofenac 5 μM, first value of 2C9/2D6/3A4. The method, then:
as §1, §2, §3, §4, §5

Experimental findings from US20210395239A1 (Hoffmann-La Roche Inc., priority 2018, published 2021) are described below.

T1 sequence (P10635 whole entry): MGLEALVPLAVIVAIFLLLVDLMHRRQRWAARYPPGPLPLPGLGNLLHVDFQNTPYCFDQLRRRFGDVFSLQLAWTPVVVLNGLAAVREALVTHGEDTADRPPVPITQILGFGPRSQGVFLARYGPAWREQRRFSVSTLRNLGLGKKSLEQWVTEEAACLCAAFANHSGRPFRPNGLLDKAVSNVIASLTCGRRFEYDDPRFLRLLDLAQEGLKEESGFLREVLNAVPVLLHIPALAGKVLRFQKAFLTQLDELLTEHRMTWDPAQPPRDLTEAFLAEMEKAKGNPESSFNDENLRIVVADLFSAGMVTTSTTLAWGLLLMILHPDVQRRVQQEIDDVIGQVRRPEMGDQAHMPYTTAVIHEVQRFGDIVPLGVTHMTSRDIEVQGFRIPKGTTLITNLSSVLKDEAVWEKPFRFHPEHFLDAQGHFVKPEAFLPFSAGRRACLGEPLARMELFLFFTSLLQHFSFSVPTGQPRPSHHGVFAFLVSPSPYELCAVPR

With `[2H]c1ccc2c(N3C[C@H](CN4CCN(c5nc(C)cc(N6C[C@H](OC)[C@@H](N)C6)n5)CC4)O[C@H](C)C3)ccc(C#N)c2n1` [Example 134, 5-[(2S,6R)-2-[[4-[4-[(3S,4S)-3-amino-4-methoxy-pyrrolidin-1-yl]-6-methyl-pyrimidin-2-yl]piperazin-1-yl]methyl]-6-methyl-morpholin-4-yl]-2-deuterio-quinoline-8-carbonitrile], the inhibition at 10 min, 10 µM on CYP2D6 was -4%. Also, at human TLR8, the IC50 was found to be 1 nM. The inhibition at 5 min, 10 µM against CYP2C9 stood at 44.5%.

Regarding `CO[C@@H]1CN(c2ccc(N3CCN(C[C@H]4CN(c5ccc(C#N)n6ncc(F)c56)C[C@@H](C)O4)CC3)cn2)C[C@H]1N` [Example 166, 4-[(2S,6R)-2-[[4-[6-[(3R,4R)-3-amino-4-methoxy-pyrrolidin-1-yl]-3-pyridyl]piperazin-1-yl]methyl]-6-methyl-morpholin-4-yl]-3-fluoro-pyrazolo[1,5-a]pyridine-7-carbonitrile], the inhibition at 10 min, 10 µM against CYP2D6 worked out at 20%. Also, at human TLR8, the IC50 is 31 nM. At CYP2C9, the inhibition at 5 min, 10 µM was -3.5%.

Take `C[C@@H]1CN(c2ccc(C#N)c3ncccc23)C[C@H](CN2CC(c3cccc(N4CCNCC4)c3)C2)O1` [Example 4, 5-[(2R,6S)-2-methyl-6-[[3-(3-piperazin-1-ylphenyl)azetidin-1-yl]methyl]morpholin-4-yl]quinoline-8-carbonitrile]: the inhibition at 10 min, 10 µM at CYP2D6 was found to be 11%. In addition, the IC50 on human TLR8 was determined as 17 nM. Also, the inhibition at 5 min, 10 µM against CYP2C9 was found to be 5.5%.

`C[C@@H]1CN(c2ccc(C#N)n3ncc(F)c23)C[C@H](CN2CCN(c3ccc(N4CC(C)(N)C4)nc3)CC2)O1` [Example 154, 4-[(2S,6R)-2-[[4-[6-(3-amino-3-methyl-azetidin-1-yl)-3-pyridyl]piperazin-1-yl]methyl]-6-methyl-morpholin-4-yl]-3-fluoro-pyrazolo[1,5-a]pyridine-7-carbonitrile]: on CYP2D6, the inhibition at 10 min, 10 µM is -10.5%. Besides, the IC50 at human TLR8 stood at 50 nM. In addition, the inhibition at 5 min, 10 µM on CYP2C9 stood at 2.5%.

With `CO[C@@H]1CN(c2ccc(C3CN(C[C@H]4CN(c5ccc(C#N)n6ncc(F)c56)C[C@@H](C)O4)C3)cn2)C[C@H]1N` [Example 164, 4-[(2S,6R)-2-[[3-[6-[(3R,4R)-3-amino-4-methoxy-pyrrolidin-1-yl]-3-pyridyl]azetidin-1-yl]methyl]-6-methyl-morpholin-4-yl]-3-fluoro-pyrazolo[1,5-a]pyridine-7-carbonitrile], the inhibition at 10 min, 10 µM against CYP2D6 came to 26%. In addition, on human TLR8, the IC50 worked out at 30 nM. In addition, the inhibition at 5 min, 10 µM against CYP2C9 is -1%.

Consider `[2H]c1ccc2c(N3C[C@H](CN4CCN(c5ccc(N[C@H]6CNC[C@H]6F)nc5)CC4)O[C@H](C)C3)ccc(C#N)c2n1` [Example 162, 2-deuterio-5-[(2S,6R)-2-[[4-[6-[[(3S,4R)-4-fluoropyrrolidin-3-yl]amino]-3-pyridyl]piperazin-1-yl]methyl]-6-methyl-morpholin-4-yl]quinoline-8-carbonitrile], for which the inhibition at 10 min, 10 µM at CYP2D6 turned out to be 1%. For the same compound, the IC50 at human TLR8 was found to be 11 nM. The inhibition at 5 min, 10 µM against CYP2C9 is -2.5%.

With `[2H]c1ccc2c(N3C[C@H](CN4CCN(c5ccc(N6C[C@@H](N)[C@H](OC)C6)nc5)CC4)O[C@H](C)C3)ccc(C#N)c2n1` [Example 143, 5-[(2S,6R)-2-[[4-[6-[(3R,4R)-3-amino-4-methoxy-pyrrolidin-1-yl]-3-pyridyl]piperazin-1-yl]methyl]-6-methyl-morpholin-4-yl]-2-deuterio-quinoline-8-carbonitrile], the inhibition at 10 min, 10 µM on CYP2D6 was -30%. Moreover, on human TLR8, the IC50 amounted to 8 nM. The inhibition at 5 min, 10 µM against CYP2C9 was -9.5%.

`CO[C@H]1CN(c2cc(C)nc(N3CCN(C[C@H]4CN(c5ccc(C#N)c6nccnc56)C[C@@H](C)O4)CC3)n2)C[C@@H]1N` [Example 104, 8-[(2S,6R)-2-[[4-[4-[(3S,4S)-3-amino-4-methoxy-pyrrolidin-1-yl]-6-methyl-pyrimidin-2-yl]piperazin-1-yl]methyl]-6-methyl-morpholin-4-yl]quinoxaline-5-carbonitrile]: the inhibition at 10 min, 10 µM against CYP2D6 was 15%. For the same compound, on human TLR8, the IC50 was determined as 1 nM. Besides, at CYP2C9, the inhibition at 5 min, 10 µM was -1%.

`C[C@@H]1CN(c2ccc(C#N)c3ncccc23)C[C@H](CN2CC(c3ccc(N4CCNCC4)cc3)C2)O1` [Example 3, 5-[(2R,6S)-2-methyl-6-[[3-(4-piperazin-1-ylphenyl)azetidin-1-yl]methyl]morpholin-4-yl]quinoline-8-carbonitrile]: at CYP2D6, the inhibition at 10 min, 10 µM is 13.5%. The IC50 on human TLR8 worked out at 9 nM. Moreover, on CYP2C9, the inhibition at 5 min, 10 µM is -18%.

For `C[C@@H]1CN(c2ccc(C#N)n3nccc23)C[C@H](CN2CC(c3ccc(N4CC(C)(N)C4)cc3)C2)O1` [Example 163, 4-[(2S,6R)-2-[[3-[4-(3-amino-3-methyl-azetidin-1-yl)phenyl]azetidin-1-yl]methyl]-6-methyl-morpholin-4-yl]pyrazolo[1,5-a]pyridine-7-carbonitrile], the inhibition at 10 min, 10 µM at CYP2D6 came out at 6.5%. The IC50 at human TLR8 was 68 nM. Besides, at CYP2C9, the inhibition at 5 min, 10 µM was -4.5%.

In the case of `Cc1cc(N2CCN(C[C@H]3CN(c4ccc(C#N)c5nccnc45)C[C@@H](C)O3)CC2)nc(N2CC(N)C2)n1` [Example 112, 8-[(2S,6R)-2-[[4-[2-(3-aminoazetidin-1-yl)-6-methyl-pyrimidin-4-yl]piperazin-1-yl]methyl]-6-methyl-morpholin-4-yl]quinoxaline-5-carbonitrile], the inhibition at 10 min, 10 µM on CYP2D6 is -2%. For the same compound, the IC50 at human TLR8 is 1 nM. Further, the inhibition at 5 min, 10 µM at CYP2C9 was found to be 0.5%.

As to `[2H]c1ccc2c(N3C[C@H](CN4CCN(c5ccc(N6CC7(CNCCO7)C6)nc5)CC4)O[C@H](C)C3)ccc(C#N)c2n1` [Example 152, 2-deuterio-5-[(2R,6S)-2-methyl-6-[[4-[6-(5-oxa-2,8-diazaspiro[3.5]nonan-2-yl)-3-pyridyl]piperazin-1-yl]methyl]morpholin-4-yl]quinoline-8-carbonitrile], the inhibition at 10 min, 10 µM against CYP2D6 came to 12.5%. Further, the IC50 on human TLR8 worked out at 17 nM. In addition, on CYP2C9, the inhibition at 5 min, 10 µM was -1%.

With `[2H]c1ccc2c(N3C[C@H](CN4CC(c5ccc(N6C[C@@H](N)[C@H](OC)C6)nc5)C4)O[C@H](C)C3)ccc(C#N)c2n1` [Example 149, 5-[(2S,6R)-2-[[3-[6-[(3R,4R)-3-amino-4-methoxy-pyrrolidin-1-yl]-3-pyridyl]azetidin-1-yl]methyl]-6-methyl-morpholin-4-yl]-2-deuterio-quinoline-8-carbonitrile], at human TLR8, the IC50 is 12 nM.
